pEC50, pIC50: −log10 of the molar value. The source made the active and inactive calls. No cut-off for these calls is given here.
Assays:
[1] = target: T1, ATP-dependent Clp protease proteolytic subunit, mitochondrial (Homo sapiens, UniProt Q16740); experiment: Agonist activity at human CLpP by measuring alpha-casein hydrolysis using alpha-casein as substrate preincubated for 10 mins followed by substrate addition and measured after 120 mins by Coomassie brilliant blue staining based SDS-PAGE assay
T1 sequence (Q16740 whole entry): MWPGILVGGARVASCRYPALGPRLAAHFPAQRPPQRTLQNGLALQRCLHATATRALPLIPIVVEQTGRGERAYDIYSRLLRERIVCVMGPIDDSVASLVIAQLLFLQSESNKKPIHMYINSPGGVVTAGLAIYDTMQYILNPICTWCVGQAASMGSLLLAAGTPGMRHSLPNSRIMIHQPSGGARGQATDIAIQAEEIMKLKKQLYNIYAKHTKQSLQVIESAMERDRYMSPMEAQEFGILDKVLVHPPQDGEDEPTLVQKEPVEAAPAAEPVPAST

[2] = system: MOLM-13; experiment: Antiproliferative activity against human MOLM-13 cells assessed as inhibition of cell growth at 20 uM by CCK-8 assay relative to control; assay type: functional
[3] = target: T1, ATP-dependent Clp protease proteolytic subunit, mitochondrial; experiment: Agonist activity at human CLpP by measuring alpha-casein hydrolysis using alpha-casein as substrate by FITC staining based assay
[4] = target: T1, ATP-dependent Clp protease proteolytic subunit, mitochondrial; experiment: Binding affinity to human CLpP assessed as change in melting temperature by DSF assay; conditions: filed as agonist
[5] = target: T1, ATP-dependent Clp protease proteolytic subunit, mitochondrial; experiment: Binding affinity to CLpP in human MOLM-13 cells assessed as thermal stabilization at 10 uM at 52.9 to 78 degreeC by cellular thermal shift assay; assay type: cell-based; conditions: filed as agonist
[6] = target: T1, ATP-dependent Clp protease proteolytic subunit, mitochondrial; experiment: Binding affinity to CLpP in human HEL cells assessed as thermal stabilization at 10 uM at 52.9 to 78 degreeC by cellular thermal shift assay; assay type: cell-based; conditions: filed as agonist
[7] = target: T1, ATP-dependent Clp protease proteolytic subunit, mitochondrial; experiment: Binding affinity to CLpP in human MV4-11 cells assessed as thermal stabilization at 10 uM at 52.9 to 78 degreeC by cellular thermal shift assay; assay type: cell-based; conditions: filed as agonist
[8] = system: HEL; experiment: Antiproliferative activity against human HEL cells assessed as inhibition of cell growth incubated for 72 hrs by CCK-8 assay; assay type: functional, cell-based
[9] = system: MOLM-13; experiment: Antiproliferative activity against human MOLM-13 cells assessed as inhibition of cell growth incubated for 72 hrs by CCK-8 assay; assay type: functional, cell-based; conditions: MOLM-13, 72 h
[10] = system: MV4-11; experiment: Antiproliferative activity against human MV4-11 cells assessed as inhibition of cell growth incubated for 72 hrs by CCK-8 assay; assay type: functional, cell-based; conditions: MV4-11, 72 h
[11] = system: NB-4; experiment: Antiproliferative activity against human NB4 cells assessed as inhibition of cell growth incubated for 72 hrs by CCK-8 assay; assay type: functional, cell-based; conditions: NB-4, 72 h
[12] = system: NB-4; experiment: Inhibition of colony formation in human NB4 cells incubated for 14 days; assay type: functional, cell-based; conditions: time 14.0 day
[13] = system: NB-4; experiment: Antileukemic activity against human NB4 cells assessed as downregulation of NDUFA12 protein expression incubated for 24 hrs by Western blotting analysis; assay type: functional, cell-based
[14] = system: NB-4; experiment: Antileukemic activity against human NB4 cells assessed as downregulation of NDUFB8 protein expression incubated for 24 hrs by Western blotting analysis; assay type: functional, cell-based
[15] = system: NB-4; experiment: Antileukemic activity against human NB4 cells assessed as downregulation of NDUFV2 protein expression incubated for 24 hrs by Western blotting analysis; assay type: functional, cell-based
[16] = system: NB-4; experiment: Antileukemic activity against human NB4 cells assessed as downregulation of SDHA protein expression incubated for 24 hrs by Western blotting analysis; assay type: functional, cell-based
[17] = system: NB-4; experiment: Antileukemic activity against human NB4 cells assessed as downregulation of SDHB protein expression incubated for 24 hrs by Western blotting analysis; assay type: functional, cell-based
[18] = system: NB-4; experiment: Antileukemic activity against human NB4 cells assessed as downregulation of UQCRC2 protein expression incubated for 24 hrs by Western blotting analysis; assay type: functional, cell-based
[19] = system: Cell membrane; experiment: Induction of mitochondrial membrane potential loss in human MOLM-13 cells at 10 uM incubated upto 48 hrs by TMRE staining based assay
[20] = system: MOLM-13; experiment: Antileukemic activity against human MOLM-13 cells assessed as reduction in cellular ATP content at 10 uM incubated upto 48 hrs; assay type: functional, cell-based
[21] = system: MOLM-13; experiment: Antileukemic activity against human MOLM-13 cells assessed as reduction in mitochondrial DNA content at 10 uM incubated for 24 hrs; assay type: functional, cell-based
[22] = system: MV4-11; experiment: Antileukemic activity against human MV4-11 cells assessed as reduction in mitochondrial DNA content at 10 uM incubated for 24 hrs; assay type: functional, cell-based
[23] = system: HEL; experiment: Antileukemic activity against human HEL cells assessed as reduction in mitochondrial DNA content at 10 uM incubated for 24 hrs; assay type: functional, cell-based
[24] = system: NB-4; experiment: Antileukemic activity against human NB4 cells assessed as reduction in mitochondrial DNA content at 10 uM incubated for 24 hrs; assay type: functional, cell-based
[25] = system: MOLM-13; experiment: Inhibition of mitochondrial respiration in human MOLM-13 cells assessed as reduction in oxygen consumption rate at 5 uM incubated for 24 hrs; assay type: functional, cell-based
[26] = system: MOLM-13; experiment: Inhibition of mitochondrial respiration in human MOLM-13 cells assessed as reduction in oxygen consumption rate at 10 uM incubated for 24 hrs; assay type: functional, cell-based
[27] = system: MV4-11; experiment: Inhibition of mitochondrial respiration in human MV4-11 cells assessed as reduction in oxygen consumption rate at 5 uM incubated for 24 hrs; assay type: functional, cell-based
[28] = system: MV4-11; experiment: Inhibition of mitochondrial respiration in human MV4-11 cells assessed as reduction in oxygen consumption rate at 10 uM incubated for 24 hrs; assay type: functional, cell-based
[29] = system: NB-4; experiment: Inhibition of mitochondrial respiration in human NB4 cells assessed as reduction in oxygen consumption rate at 5 uM incubated for 24 hrs; assay type: functional, cell-based
[30] = system: NB-4; experiment: Inhibition of mitochondrial respiration in human NB4 cells assessed as reduction in oxygen consumption rate at 10 uM incubated for 24 hrs; assay type: functional, cell-based
[31] = system: MOLM-13; experiment: Induction of apoptosis in human MOLM-13 cells incubated for 24 to 72 hrs; assay type: functional, cell-based; conditions: time 24-72 hrs
[32] = system: MV4-11; experiment: Induction of apoptosis in human MV4-11 cells incubated for 24 to 72 hrs; assay type: functional, cell-based; conditions: time 24-72 hrs
[33] = system: NB-4; experiment: Induction of apoptosis in human NB4 cells incubated for 24 to 72 hrs; assay type: functional, cell-based; conditions: time 24-72 hrs
[34] = system: MV4-11; experiment: Antiproliferative activity against human MV4-11 cells cultured as 3D cells assessed as inhibition of cell growth; assay type: functional, cell-based
[35] = system: MV4-11; experiment: Antileukemic activity against human MV4-11 cells xenografted in BALB/c mouse assessed as reduction in tumor volume at 30 mg/kg,ip administrated for 30 days; assay type: functional, organism-based; conditions: time 30.0 day
[36] = system: MV4-11; experiment: Antileukemic activity against human MV4-11 cells xenografted in BALB/c mouse assessed as reduction in tumor volume at 60 mg/kg,ip administrated for 30 days; assay type: functional, organism-based; conditions: time 30.0 day
[37] = system: MV4-11; experiment: Antileukemic activity against human MV4-11 cells xenografted in BALB/c mouse assessed as reduction in tumor weight at 30 mg/kg,ip administrated for 30 days; assay type: functional, organism-based; conditions: time 30.0 day
[38] = system: MV4-11; experiment: Antileukemic activity against human MV4-11 cells xenografted in BALB/c mouse assessed as reduction in tumor weight at 60 mg/kg,ip administrated for 30 days; assay type: functional, organism-based; conditions: time 30.0 day
[39] = system: NB-4; experiment: Antileukemic activity against human NB4 cells xenografted in BALB/c mouse assessed as reduction in tumor volume at 30 mg/kg,ip administrated for 30 days; assay type: functional, organism-based; conditions: time 30.0 day
[40] = system: NB-4; experiment: Antileukemic activity against human NB4 cells xenografted in BALB/c mouse assessed as reduction in tumor volume at 60 mg/kg,ip administrated for 30 days; assay type: functional, organism-based; conditions: time 30.0 day
[41] = system: NB-4; experiment: Antileukemic activity against human NB4 cells xenografted in BALB/c mouse assessed as reduction in tumor weight at 30 mg/kg,ip administrated for 30 days; assay type: functional, organism-based; conditions: time 30.0 day
[42] = system: NB-4; experiment: Antileukemic activity against human NB4 cells xenografted in BALB/c mouse assessed as reduction in tumor weight at 60 mg/kg,ip administrated for 30 days; assay type: functional, organism-based; conditions: time 30.0 day
[43] = Toxicity in BALB/c mouse xenografted with human MV4-11 cells assessed as change in body weight at 30 mg/kg,ip administrated for 30 days; assay type: organism-based; conditions: in vivo, 720 h, time 30 day
[44] = Toxicity in BALB/c mouse xenografted with human MV4-11 cells assessed as change in body weight at 60 mg/kg,ip administrated for 30 days; assay type: organism-based; conditions: in vivo, 720 h, time 30 day
[45] = Toxicity in BALB/c mouse xenografted with human NB4 cells assessed as change in body weight at 30 mg/kg,ip administrated for 30 days; assay type: organism-based, NB-4; conditions: in vivo, 720 h, time 30 day
[46] = Toxicity in BALB/c mouse xenografted with human NB4 cells assessed as change in body weight at 60 mg/kg,ip administrated for 30 days; assay type: organism-based, NB-4; conditions: in vivo, 720 h, time 30 day

With `CC[C@H](C)[C@H]1C(=O)N(Cc2ccc(OC)c3ccccc23)C[C@@H]2N(C(=O)NCc3ccc(Br)cc3)CCC(=O)N12` as the molecule, how does the pEC50 [1] read?
The pEC50 was 5.66.

What about the inhibition at 20 µM [2] of the same molecule?
Its inhibition at 20 µM is 99.6%.

What about the pEC50 [3] of the same molecule?
Its pEC50 is 6.27.

And the ΔTm [4]?
Its ΔTm is 21.8 °C.

What about the Activity [5] of the same molecule?
The Activity was “Active”.

What about the Activity [6] of the same molecule?
The Activity was “Active”.

What about the Activity [7] of the same molecule?
The Activity was “Active”.

And the pIC50 [8]?
Its pIC50 is 5.48.

What about the pIC50 [9] of the same molecule?
The pIC50 was 5.54.

What about the pIC50 [10] of the same molecule?
Its pIC50 is 5.24.

What about the pIC50 [11] of the same molecule?
Its pIC50 is 5.31.

What about the inhibition [12] of the same molecule?
The inhibition was “Dose-Dependent Effect”.

What about the Activity [13] of the same molecule?
The Activity was “Dose-Dependent Effect”.

And the Activity [14]?
The Activity was “Dose-Dependent Effect”.

What about the Activity [15] of the same molecule?
The Activity was “Dose-Dependent Effect”.

And the Activity [16]?
Its Activity is “Dose-Dependent Effect”.

And the Activity [17]?
Its Activity is “Dose-Dependent Effect”.

And the Activity [18]?
The Activity was “Dose-Dependent Effect”.

What about the Activity [19] of the same molecule?
The Activity was “Active”.

And the Activity [20]?
The Activity was “Active”.

And the Activity [21]?
Its Activity is “Active”.

And the Activity [22]?
The Activity was “Active”.

And the Activity [23]?
Its Activity is “Active”.

What about the Activity [24] of the same molecule?
Its Activity is “Active”.

And the inhibition [25]?
Its inhibition is “Active”.

What about the inhibition [26] of the same molecule?
Its inhibition is “Active”.

What about the inhibition [27] of the same molecule?
The inhibition was “Active”.

What about the inhibition [28] of the same molecule?
The inhibition was “Active”.

What about the inhibition [29] of the same molecule?
Its inhibition is “Active”.

And the inhibition [30]?
Its inhibition is “Active”.

And the Activity [31]?
The Activity was “Active”.

And the Activity [32]?
The Activity was “Active”.

And the Activity [33]?
Its Activity is “Active”.

And the Activity [34]?
Its Activity is “Dose-Dependent Effect”.

What about the Activity [35] of the same molecule?
Its Activity is “Active”.

What about the Activity [36] of the same molecule?
The Activity was “Active”.

What about the Activity [37] of the same molecule?
Its Activity is “Active”.

What about the Activity [38] of the same molecule?
The Activity was “Active”.

And the Activity [39]?
The Activity was “Active”.

And the Activity [40]?
The Activity was “Active”.

And the Activity [41]?
The Activity was “Active”.

And the Activity [42]?
The Activity was “Active”.

And the Activity [43]?
Its Activity is “Non-Toxic”.

What about the Activity [44] of the same molecule?
Its Activity is “Non-Toxic”.

What about the Activity [45] of the same molecule?
The Activity was “Non-Toxic”.

What about the Activity [46] of the same molecule?
Its Activity is “Non-Toxic”.
